Experimental data as given in patent publication US4781863A, “Aminocarnitines” (Cornell Research Foundation, Inc., priority 1987, dated 1988).

How the values were obtained:
[1] = toxicity of administered amount in mice; assay type: in vivo; details: 5 mmol/kg intraperitoneally
Procedure: (§1) Four mice were injected subcutaneously with 0.5 mmol/kg carbon 14 tagged acetylcarnitine. Two of them were injected intraperitoneally with 5 mmol/kg of AAC. The carbon 14 CO2 output of the mice was monitored every 15 minutes for 6 hours and for each mouse a graph was prepared with time on the X-axis and % of radiolabelled CO2 on the Y-axis. […] The amount of AAC administered was not toxic to the mice.

[2] = target: T1, carnitine acetyltransferase (Columba livia, UniProt P52826); assay: carnitine acetyltransferase inhibition assay (coupled CS/MDH, NADH at 340 mμ); assay type: biochemical
T1 sequence (P52826 31-627): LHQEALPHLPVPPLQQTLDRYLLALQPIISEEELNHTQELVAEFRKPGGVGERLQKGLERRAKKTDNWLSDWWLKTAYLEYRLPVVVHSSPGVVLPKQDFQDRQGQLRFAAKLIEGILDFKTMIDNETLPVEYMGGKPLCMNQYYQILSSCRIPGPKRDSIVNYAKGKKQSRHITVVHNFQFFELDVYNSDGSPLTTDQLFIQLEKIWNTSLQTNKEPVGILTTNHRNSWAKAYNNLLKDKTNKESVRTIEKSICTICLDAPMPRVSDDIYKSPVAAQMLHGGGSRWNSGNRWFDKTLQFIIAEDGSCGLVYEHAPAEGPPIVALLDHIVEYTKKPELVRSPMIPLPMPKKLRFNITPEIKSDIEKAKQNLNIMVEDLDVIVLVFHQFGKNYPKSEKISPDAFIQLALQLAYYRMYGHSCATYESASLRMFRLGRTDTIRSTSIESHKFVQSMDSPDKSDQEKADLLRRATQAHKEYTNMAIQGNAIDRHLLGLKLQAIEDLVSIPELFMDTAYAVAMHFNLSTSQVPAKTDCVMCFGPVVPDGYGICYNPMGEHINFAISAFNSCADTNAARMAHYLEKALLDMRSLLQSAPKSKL
Procedure: D,L-3-acetamido-4-trimethylaminobutyric acid.H2 O, referred to hereinafter as AAC, was assayed for inhibition of carnitine acetyltransferase.
The procedure used is described in Fritz, I. B., Schultz, S. K., and Srere, P. A., "Properties of Partially Purified Carnitine Acetyltransferase", J. Biol. Chem., 238, 2509-2517 (1963).
The assay was based on the following reactions wherein CAT is used to denote carnitine acetyltransferase, CS is used to denote citrate synthase, MDH is used to denote malate dehydrogenase, NAD is used to denote β-nicotinamide adenine dinucleotide (unreduced form) and NADH is used to denote β-nicotinamide adenine dinucleotide (reduced form):
The assay is based on the fact that the velocity of reaction to produce acetyl-Coenzyme A is reduced to the extent that CAT is inhibited. Reactions (2) and (3) are a detection system for acetyl-Coenzyme A wherein acetyl-Coenzyme A, as it is produced, reacts with oxaloacetate thereby causing the MDH to catalyze production of oxaloacetate to replace that which is used and resulting in production of NADH which is detected using a spectrophotometer based on its property of absorbing light at 340 mμ. Thus, when CAT is bound and inhibited, the rate of NADH production is decreased and the rate of increase of absorbency at 340 mμ is decreased. The results are readily compiled in a Lineweaver-Burk plot of the reciprocal of reaction velocity versus the reciprocal of concentration of acetylcarnitine and the data can be analyzed to o provide Ki ' values as mentioned above.
Sixteen runs were carried out. They consisted of a set of 4 runs where 1 mM of D,L-acetylcarnitine (pH 8.0) was included, a set of 4 runs where 2 mM of D,L-acetylcarnitine was included, a set of 4 runs where 5 mM of D,L-acetylcarnitine was included and a set of 4 runs where 10 mM of D,L-acetylcarnitine was included. In each set of runs, one run was conducted without AAC, one run was conducted with 0.1 mM AAC, one run was conducted with 0.5 mM AAC, and one run was conducted with 1.0 mM AAC.
Each run was carried out utilizing a cuvette with 1 ml total being added to it. To each cuvette was added 0.7 ml of a premix of aqueous solutions of Tris-HCl buffer, NAD^+, dithiothreitol, and Tris D,L-malate, pH of 8.0 (concentrations in the premix were as follows: Tris-HCl, 143 mM; NAD^+, 0.71 mM; dithiothreitol, 4.3 mM; and Tris D,L-malate, 14.3 mM, the selected amount of D,L-acetylcarnitine as described above, 0.05 ml of a 4 mM aqueous solution of Coenzyme A, 0.025 ml of a 168 units/ml solution of CS, 0.025 ml of a 240 units/ml solution of MDH, the selected amount of AAC as described above, and water to 0.995 ml. The D,L-acetylcarnitine was added utilizing solution of concentration of 100 mM (in other words 0.010 ml for the first set of runs, 0.020 ml for the second set of runs, 0.050 ml for the third set of runs, 0.100 ml for the fourth set of runs). The AAC was added utilizing solution of concentration of 100 mM (in other words, additions for runs in each set were of 0 ml, 0.001 ml, 0.005 ml and 0.010 ml).
After the above described reactants were added, each cuvette and its contents were incubated for 15 minutes at 30° C.
Directly after the incubation period, 0.005 ml of CAT (concentration 5 units/ml) was added in each case.
The reaction rate in each case was measured as described above as a function of change in absorbance at 340 mμ (providing a time course of NADH formation) and was expressed as mole NADH/min. (1 mM NADH =6.2×ΔA340).
A Ki 'value for the D,L form of AAC was calculated to be 5×10^-5 M which is 10^-2 to 10^-3 times the Ki ' values found by Fritz and Schultz for the compounds they tested.

CAT = target: T2, CAT (Mus musculus, UniProt P47934); assay: carbon 14 CO2 output of mice given carbon 14 tagged acetylcarnitine; assay type: in vivo; details: 5 mmol/kg intraperitoneally, 0.5 mmol/kg carbon 14 acetylcarnitine subcutaneously, monitored 6 hours
T2 construct: from tissue; host or cells: whole living mice (endogenous enzyme)
T2 sequence (P47934 1-626): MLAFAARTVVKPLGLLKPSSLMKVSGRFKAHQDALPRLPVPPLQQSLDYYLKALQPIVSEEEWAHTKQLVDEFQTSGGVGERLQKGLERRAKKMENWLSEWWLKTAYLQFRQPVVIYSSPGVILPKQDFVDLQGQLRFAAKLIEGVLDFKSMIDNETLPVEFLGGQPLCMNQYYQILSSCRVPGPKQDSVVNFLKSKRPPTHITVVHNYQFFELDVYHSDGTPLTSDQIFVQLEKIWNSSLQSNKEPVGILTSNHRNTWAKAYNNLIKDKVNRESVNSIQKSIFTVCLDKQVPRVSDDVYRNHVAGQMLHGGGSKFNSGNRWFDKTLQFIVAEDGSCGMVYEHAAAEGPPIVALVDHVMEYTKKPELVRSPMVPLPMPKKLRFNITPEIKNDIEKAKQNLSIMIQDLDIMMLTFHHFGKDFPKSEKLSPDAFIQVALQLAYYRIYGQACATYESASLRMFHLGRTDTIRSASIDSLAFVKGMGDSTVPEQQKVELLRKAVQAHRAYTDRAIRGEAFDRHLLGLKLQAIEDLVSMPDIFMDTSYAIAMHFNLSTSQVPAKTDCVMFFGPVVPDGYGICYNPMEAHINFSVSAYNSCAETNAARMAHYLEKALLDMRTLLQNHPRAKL
Procedure: as §1

[3] = system: carnitine palmitoyltransferase; assay: binding and inhibition of carnitine palmitoyltransferase; assay type: biochemical; details: no test described
[4] = cited from earlier work

SMILES: CC(=O)NC(CC(=O)[O-])C[N+](C)(C)C (racemic) [AAC, D,L-3-acetamido-4-trimethylaminobutyric acid.H2 O]
- toxicity of the amount administered [1]: not toxic
- Ki' relative to the Ki' values found by Fritz and Schultz for the compounds they tested [2]: 10^-2 to 10^-3 times
- reversibility of binding action [2]: reversible by dilution
- Ki ([2]; D,L form, Lineweaver-Burk plot, 1-10 mM D,L-acetylcarnitine, pH 8.0, 30° C): 50 µM
- mode of inhibition of CAT ([2]; Lineweaver-Burk plot, same site as acetyl carnitine): competitive inhibitor
- inhibition at 100 µM ([2]; at a concentration of 0.1 mM, read-out: inhibition of formation of acetyl-Coenzyme A): 34%
- inhibition at 500 µM ([2]; at a concentration of 0.5 mM, read-out: inhibition of formation of acetyl-Coenzyme A): 67%
- inhibition at 1000 µM ([2]; at a concentration of 1 mM, read-out: inhibition of formation of acetyl-Coenzyme A): 81%
- binding to CAT relative to acetylcarnitine (times more tightly) ([2]; from Lineweaver-Burk plot): 18 times
- rate of radiolabelled CO2 output (CAT): retarded rate of radiolabelled CO2 output

SMILES: C[N+](C)(C)CC(CC(=O)[O-])NC(=O)CBr (racemic) [D,L-3-bromoacetamido-4-trimethylaminobutyricacid.H2 O]
- reversibility of binding action [2]: irreversible
- inhibition of CAT ([2]; no test described): inhibits CAT similarly to AAC

SMILES: CCCCCCCCCCCCCCCC(=O)NC(CC(=O)[O-])C[N+](C)(C)C (racemic) [PAC, D,L-3-palmitoamido-4-trimethylaminobutyric acid.H2 O]
- binding and inhibition of carnitine palmitoyltransferase [3]: readily binds to and inhibits carnitine palmitoyltransferase

SMILES: C[N+](C)(C)CC(CC(=O)[O-])OC(=O)CBr [Bromoacetyl-L-carnitine]
- toxicity in vivo [4]: toxicity due to release of bromine and/or bromoacetate
